The assay has as its system B16F10 cells. As to the kind of experiment: B16F10 metastatic melanoma, lung foci. The note with it: B16F10 i.v.; early PTXF treatment. Type of assay: in vivo, C57Bl/6J mice. Here is the method: 5×10^4 B16F1 or 5×10^5 CT-26 or BRAF^[…]^-/- cells diluted in sterile PBS1X were injected subcutaneously into the shaved flank of each mouse. For metastasis experiments, 2.5×10^4 B16F10 cells were injected intravenously in the tail vein. […] Anti-PD-1 (RMP1-14), anti-PD-L1 (10F.9G2) and anti-CD8 (YTS.169-4) mAbs were obtained from BioXCell. Rat IgG isotype control was from R&D Systems.

With `CC(=O)CCCCn1c(=O)c2c(ncn2C)n(C)c1=O` [PTXF, 1-(5-oxohexyl)-3,7-dimethylxanthine], the “total number of metastatic foci in lungs” value is reported as “significantly decreased”.

For the origin of these results see patent US10954300B2, “Use of pentoxifylline with immune checkpoint-blockade therapies for the treatment of melanoma” (THE TRUSTEES OF COLUMBIA UNIVERSITY IN THE CITY OF NEW YORK, priority 2015, dated 2021).
